Measured values reported in ChEMBL document CHEMBL3727361, “Nitrogen bicyclic compounds as inhibitors for Scyl1 and Grk5” (2014).

Each compound was assayed on Beta-TC6 (assay: Increase in insulin release in mouse BetaTC6 cells assessed as relative insulin release activity at 10 uM incubated for 2 to 4 hrs by FRET based HTRF assay relative to sunitinib).
Format: functional

Row | SMILES | Activity [%]
1 | Cc1cc(-c2cn3c(-c4ccncc4)cnc3cn2)cc(C)c1O | 20
2 | N#Cc1cccc(-c2cnc3cccnn23)c1 | 20
3 | Oc1cccc(-c2cnc3ccc(-c4ccc(F)cc4)nn23)c1 | 20
4 | c1cncc(CCNc2ccc3ncc(-c4ccc5ccccc5c4)n3n2)c1 | 10
5 | COc1ccc(-c2nnc3ccc(-c4cccc(C(=O)N(C)C)c4)cn23)cc1OC | 50
6 | c1cncc(-c2cnc3cnc(-c4cc5ccccc5s4)cn23)c1 | 20
7 | COc1cccc(CC(=O)Nc2cnc3cnc(-c4cnn(C)c4)cn23)c1 | 10
8 | COc1cccc(-c2ccc3ncc(-c4cccc(Cl)c4)n3n2)c1 | 10
9 | COc1cc(-c2nnc3ccc(-c4ccc(N5CCN(C)CC5)cc4)cn23)ccc1O | 20
10 | c1cnc2ccc(-c3ccc4nnc(-c5cscn5)n4c3)cc2c1 | 50
11 | Clc1cccc(-c2nnc3ccc(-c4ncccn4)cn23)c1 | 10
12 | CS(=O)(=O)c1ccc(-c2cnc3ccc(Cc4ccccc4)nn23)cc1 | 10
13 | Oc1ccc(-c2cn3c(-c4cccs4)cnc3cn2)cc1 | 50
14 | Fc1ccc(-c2ccc3nnc(-c4cscn4)n3c2)cc1Cl | 20
15 | COc1cc(-c2cn3c(-c4ccc5c(ccn5C)c4)cnc3cn2)ccc1O | 20
16 | CS(=O)(=O)c1cccc(-c2ccc3nnc(-c4cccc(OC(F)(F)F)c4)n3c2)c1 | 50
17 | Fc1cccc(-c2cn3c(-c4ccc5c(c4)OCO5)cnc3cn2)c1 | 50
18 | c1csc(-c2cnc3cnc(-c4cc5ccccc5s4)cn23)c1 | 50
19 | c1ccc(-c2cnc3cnc(-c4cccs4)cn23)cc1 | 20
20 | COc1ccc(-c2cnc3ccc(NCC4CC4)nn23)cn1 | 10
21 | COc1cc(-c2cnc3cnc(-c4ccc5c(c4)OCO5)cn23)ccc1O | 20
22 | COc1cc(-c2ccc3nnc(-c4ccc5nccnc5c4)n3c2)ccc1O | 50
23 | FC(F)(F)c1cccc(-c2cnc3ccc(-c4ccncc4)nn23)c1 | 20

Row | SMILES | Activity [%]
24 | c1csc(-c2ccc3nnc(-c4ccoc4)n3c2)c1 | 50
25 | c1csc(-c2cn3c(-c4cccs4)cnc3cn2)c1 | 50
26 | Cc1ccccc1-c1cnc2cnc(-c3cccs3)cn12 | 10
27 | COc1cc(-c2nnc3ccc(-c4ccccc4C)cn23)ccc1O | 50
28 | CS(=O)(=O)Nc1cccc(-c2ccc3ncc(-c4ccncc4)n3n2)c1 | 20
29 | COc1ccc(-c2cnc3cnc(-c4ccc(N)nc4)cn23)cc1 | 20
30 | Oc1ccc(-c2cnc3cnc(-c4ccc(Cl)cc4)cn23)cc1 | 20
31 | c1cc2c(cc1CNc1ccc3ncc(-c4ccc(N5CCOCC5)cc4)n3n1)OCO2 | 20
32 | Fc1cccc(-c2cn3c(-c4ccccc4)cnc3cn2)c1 | 20
33 | COc1ccccc1-c1ccc2ncc(-c3ccc(F)c(Cl)c3)n2n1 | 20
34 | Nc1ccc(-c2cn3c(-c4ccc5c(c4)OCO5)cnc3cn2)cn1 | 10
35 | c1cncc(CCNc2ccc3ncc(-c4ccc(N5CCOCC5)cc4)n3n2)c1 | 50
36 | CN1CCN(c2ccc(-c3cn4c(-c5ccc(C(=O)N(C)C)cc5)cnc4cn3)cn2)CC1 | 20
37 | CSc1ccc(-c2cnc3cccnn23)cc1 | 10
38 | COc1cc(OC)cc(-c2cn3c(-c4cccc(O)c4)cnc3cn2)c1 | 20
39 | COc1cccc(CC(=O)Nc2cnc3cnc(-c4ccc5[nH]ccc5c4)cn23)c1 | 10
40 | CNC(=O)c1cccc(-c2ccc3nnc(-c4ccc5c(c4)OCO5)n3c2)c1 | 20
41 | Oc1cccc(-c2ccc3ncc(-c4cccc(C(F)(F)F)c4)n3n2)c1 | 20
42 | CSc1ccc(-c2cn3c(-c4cccc(CO)c4)cnc3cn2)cc1 | 20
43 | N#Cc1ccc(-c2ccc3nnc(-c4cccc(O)c4)n3c2)cc1 | 50
44 | Clc1cccc(-c2nnc3ccc(-c4ccoc4)cn23)c1 | 50
45 | NC(=O)c1ccc(-c2ccc3ncc(-c4ccccc4)n3n2)cc1 | 20
